The target of one experiment is human factor XIa (Homo sapiens, UniProt P03951). Kind of experiment: Factor XIa Assay. Type of experiment: biochemical. As to conditions: human factor XIa 0.04 nM, 30 min pre-incubation at 25° C., substrate GPR-AFC, pH 7.4, 60 min incubation; read-out: FXIa IC50.
For another experiment, the target named is T1, Human plasma kallikrein (Homo sapiens, UniProt P03952).
T1 construct: yields a heavy chain (371 amino acids) and a light chain (248 amino acids); purchased Enzyme Research Laboratories
Nature of the experiment: Plasma Kallikrein Assay. The class given is biochemical. As to conditions: purified Human plasma kallikrein 0.5 nM, substrate Acetyl-K-P-R-AFC, HEPES pH 7.4, fluorescence 405 Ex/510 Em; read-out: PKal IC50. In a few lines: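 Purified human plasma kallikrein (0.5 nM) with fluorogenic Acetyl-K-P-R-AFC at ≤0.2 Km in pH 7.4 HEPES with NaCl, CaCl2 and PEG 8000, after enzyme–inhibitor equilibration. Fluorescence read at 405/510 nm under linear conditions. IC50 from four-parameter fit; Ki by Cheng-Prusoff.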

Here are results for 19 compounds from US20240208994A1, “PLASMA KALLIKREIN INHIBITORS” (Merck Sharp & Dohme LLC, priority 2021, published 2024).

pIC50: −log10 of the molar value.

T1 sequence (P03952 391-638 limits assumed): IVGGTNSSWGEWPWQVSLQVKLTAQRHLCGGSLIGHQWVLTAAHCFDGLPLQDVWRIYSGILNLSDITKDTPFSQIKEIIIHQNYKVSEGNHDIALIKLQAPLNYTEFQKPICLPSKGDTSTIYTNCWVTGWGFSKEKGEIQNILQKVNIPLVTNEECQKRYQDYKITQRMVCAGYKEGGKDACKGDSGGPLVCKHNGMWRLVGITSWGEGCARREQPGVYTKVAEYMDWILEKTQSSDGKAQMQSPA
T1 sequence (P03952 20-390 partner limits assumed): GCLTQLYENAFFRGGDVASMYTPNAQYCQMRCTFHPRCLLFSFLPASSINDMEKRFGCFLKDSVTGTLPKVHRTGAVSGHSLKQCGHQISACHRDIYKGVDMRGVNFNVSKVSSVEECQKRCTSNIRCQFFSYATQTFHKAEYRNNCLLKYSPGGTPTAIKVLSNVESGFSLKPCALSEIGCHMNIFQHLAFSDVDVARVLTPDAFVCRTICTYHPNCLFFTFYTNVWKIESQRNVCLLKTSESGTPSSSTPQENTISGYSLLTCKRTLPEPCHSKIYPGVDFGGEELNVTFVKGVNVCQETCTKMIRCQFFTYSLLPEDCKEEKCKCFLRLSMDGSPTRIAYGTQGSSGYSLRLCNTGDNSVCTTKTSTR
Sequence of human factor XIa (P03951 388-625 limits assumed): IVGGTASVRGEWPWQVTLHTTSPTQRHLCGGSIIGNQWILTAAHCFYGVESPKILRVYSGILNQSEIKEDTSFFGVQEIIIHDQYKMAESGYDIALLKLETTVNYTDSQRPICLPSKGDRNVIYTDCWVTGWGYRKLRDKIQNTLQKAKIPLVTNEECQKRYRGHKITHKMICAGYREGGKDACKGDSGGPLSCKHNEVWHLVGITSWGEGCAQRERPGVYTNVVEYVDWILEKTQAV
Sequence of human factor XIa (P03951 19-387 partner limits assumed): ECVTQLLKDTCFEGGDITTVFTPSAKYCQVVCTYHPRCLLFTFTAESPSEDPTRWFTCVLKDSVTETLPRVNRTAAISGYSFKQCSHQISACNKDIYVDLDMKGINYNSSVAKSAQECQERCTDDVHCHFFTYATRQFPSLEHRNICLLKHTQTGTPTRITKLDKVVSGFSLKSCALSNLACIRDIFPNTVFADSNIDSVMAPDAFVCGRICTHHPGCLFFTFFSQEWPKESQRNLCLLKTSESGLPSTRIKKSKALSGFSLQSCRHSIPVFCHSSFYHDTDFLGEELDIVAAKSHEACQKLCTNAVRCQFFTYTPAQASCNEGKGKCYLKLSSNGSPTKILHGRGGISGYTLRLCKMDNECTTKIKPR

As usually defined, the pIC50 is the negative decadic logarithm of the IC50, by convention in mol/L. As to `Cn1ncc(-c2cc(N)n(CC(=O)N3CC[C@@]4(C3)OC(=O)Nc3ccc(Cl)c(F)c34)n2)c1C(F)(F)F` [Example 49, (R)-1′-(2-(5-Amino-1′-methyl-5′-(trifluoromethyl)-1H,1′H-[3,4′-bipyrazol]-1-yl)acetyl)-6-chloro-5-fluorospiro[benzo[d][1,3]oxazine-4,3′-pyrrolidin]-2(1H)-one], the pIC50 on human factor XIa was 6.74; on Human plasma kallikrein, 8.85.
On to `Nc1cc(-c2ccccc2C(F)(F)F)nn1CC(=O)N1CC[C@@]2(C1)OC(=O)Nc1ccc(Cl)c(F)c12` [Example 50, (R)-1′-(2-(5-Amino-3-(2-(trifluoromethyl)phenyl)-1H-pyrazol-1-yl)acetyl)-6-chloro-5-fluorospiro[benzo[d][1,3]oxazine-4,3′-pyrrolidin]-2(1H)-one], for which the values for the negative-log IC50 (pIC50) on human factor XIa and at Human plasma kallikrein were 6.37 and 8.27, respectively.
In the case of `COc1cccc(OC)c1-c1cc(N)n(CC(=O)N2CC[C@@]3(C2)OC(=O)Nc2ccc(Cl)c(F)c23)n1` [Example 51, (R)-1′-(2-(5-Amino-3-(2,6-dimethoxyphenyl)-1H-pyrazol-1-yl)acetyl)-6-chloro-5-fluorospiro[benzo[d][1,3]oxazine-4,3′-pyrrolidin]-2(1H)-one], the pIC50 was 5.75 on human factor XIa and 7.63 on Human plasma kallikrein.
Consider `Nc1cc(C2CCCCC2)nn1CC(=O)N1CC[C@@]2(C1)OC(=O)Nc1ccc(Cl)c(F)c12` [Example 52, (R)-1′-(2-(5-Amino-3-cyclohexy1-1H-pyrazol-1-yl)acetyl)-6-chloro-5-fluorospiro[benzo[d][1,3]oxazine-4,3′-pyrrolidin]-2(1H)-one], for which the pIC50 was 6.37 at human factor XIa and 7.68 at Human plasma kallikrein.
On to `CC1(C)C(c2cc(N)n(CC(=O)N3CC[C@@]4(C3)OC(=O)Nc3ccc(Cl)c(F)c34)n2)C1(C)C` [Example 53, (R)-1′-(2-(5-Amino-3-(2,2,3,3-tetramethylcyclopropyl)-1H-pyrazol-1-yl)acetyl)-6-chloro-5-fluorospiro[benzo[d][1,3]oxazine-4,3′-pyrrolidin]-2(1H)-one], for which the pIC50 on human factor XIa is 6.49; at Human plasma kallikrein it was 7.94.
On to `Cc1ccccc1-c1cc(N)n(CC(=O)N2CC[C@@]3(C2)OC(=O)Nc2ccc(Cl)c(F)c23)n1` [Example 54, (R)-1′-(2-(5-Amino-3-(o-tolyl)-1H-pyrazol-1-yl)acetyl)-6-chloro-5-fluorospiro[benzo[d][1,3]oxazine-4,3′-pyrrolidin]-2(1H)-one], for which the pIC50 on human factor XIa was 6.54; at Human plasma kallikrein, 8.29.
For `Nc1cc(-c2ccccc2OC(F)(F)F)nn1CC(=O)N1CC[C@@]2(C1)OC(=O)Nc1ccc(Cl)c(F)c12` [Example 55, (R)-1′-(2-(5-Amino-3-(2-(trifluoromethoxy)phenyl)-1H-pyrazol-1-yl)acetyl)-6-chloro-5-fluorospiro[benzo[d][1,3]oxazine-4,3′-pyrrolidin]-2(1H)-one] the same measures were 6.54 and 8.60.
For `Nc1cc(-c2ccccc2F)nn1CC(=O)N1CC[C@@]2(C1)OC(=O)Nc1ccc(Cl)c(F)c12` [Example 56, (R)-1′-(2-(5-Amino-3-(2-fluorophenyl)-1H-pyrazol-1-yl)acetyl)-6-chloro-5-fluorospiro[benzo[d][1,3]oxazine-4,3′-pyrrolidin]-2(1H)-one] the same measures were 6.78 and 8.34.
For `Nc1cc(-c2ccccc2Br)nn1CC(=O)N1CC[C@@]2(C1)OC(=O)Nc1ccc(Cl)c(F)c12` [Example 57, (R)-1′-(2-(5-Amino-3-(2-bromophenyl)-1H-pyrazol-1-yl)acetyl)-6-chloro-5-fluorospiro[benzo[d][1,3]oxazine-4,3′-pyrrolidin]-2(1H)-one] the same measures were 6.72 and 8.60.
`Nc1cc(-c2ccccc2I)nn1CC(=O)N1CC[C@@]2(C1)OC(=O)Nc1ccc(Cl)c(F)c12` [Example 58, (R)-1′-(2-(5-Amino-3-(2-iodophenyl)-1H-pyrazol-1-yl)acetyl)-6-chloro-5-fluorospiro[benzo[d][1,3]oxazine-4,3′-pyrrolidin]-2(1H)-one]: the pIC50 at human factor XIa is 6.37; at Human plasma kallikrein, 8.24.
The corresponding values for `Nc1cc(-c2c(F)cc(F)cc2F)nn1CC(=O)N1CC[C@@]2(C1)OC(=O)Nc1ccc(Cl)c(F)c12` [Example 59, (R)-1′-(2-(5-Amino-3-(2,4,6-trifluorophenyl)-1H-pyrazol-1-yl)acetyl)-6-chloro-5-fluorospiro[benzo[d][1,3]oxazine-4,3′-pyrrolidin]-2(1H)-one] are 6.71 and 8.43.
The corresponding values for `Cc1cc(-c2cc(N)n(CC(=O)N3CC[C@@]4(C3)OC(=O)Nc3ccc(Cl)c(F)c34)n2)no1` [Example 60, (R)-1′-(2-(5-Amino-3-(5-methylisoxazol-3-y1)-1H-pyrazol-1-yl)acetyl)-6-chloro-5-fluorospiro[benzo[d][1,3]oxazine-4,3′-pyrrolidin]-2(1H)-one] are 6.06 and 7.61.
For `Nc1cc(C2C3COCC32)nn1CC(=O)N1CC[C@@]2(C1)OC(=O)Nc1ccc(Cl)c(F)c12` (stereo partly drawn) [Example 61, (4R)-1′-(2-(5-Amino-3-(3-oxabicyclo[3.1.0]hexan-6-y1)-1H-pyrazol-1-yl)acetyl)-6-chloro-5-fluorospiro[benzo[d][1,3]oxazine-4,3′-pyrrolidin]-2(1H)-one] the same measures were 6.10 and 7.57.
Regarding `COc1ccccc1-c1cc(N)n(CC(=O)N2CC[C@@]3(C2)OC(=O)Nc2ccc(Cl)c(F)c23)n1` [Example 62, (R)-1′-(2-(5-Amino-3-(2-methoxyphenyl)-1H-pyrazol-1-yl)acetyl)-6-chloro-5-fluorospiro[benzo[d][1,3]oxazine-4,3′-pyrrolidin]-2(1H)-one], the negative-log IC50 (pIC50) is 6.30 at human factor XIa and 8.18 on Human plasma kallikrein.
For `N#Cc1ccc(-c2cc(N)n(CC(=O)N3CC[C@@]4(C3)OC(=O)Nc3ccc(Cl)c(F)c34)n2)cc1` [Example 63, (R)-4-(5-Amino-1-(2-(6-chloro-5-fluoro-2-oxo-1,2-dihydrospiro[benzo[d][1,3]oxazine-4,3′-pyrrolidin]-l′-xl)-2-oxoethyl)-1H-pyrazol-3-yl)benzonitrile] the same measures were 6.21 and 7.86.
For `Nc1cc(-c2cccc(F)c2)nn1CC(=O)N1CC[C@@]2(C1)OC(=O)Nc1ccc(Cl)c(F)c12` [Example 64, (R)-1′-(2-(5-Amino-3-(3-fluorophenyl)-1H-pyrazol-1-yl)acetyl)-6-chloro-5-fluorospiro[benzo[d] [1,3]oxazine-4,3′-pyrrolidin]-2(1H)-one] the same measures were 6.25 and 7.77.
Turning to `Nc1cc(-c2ccc(Cl)cc2)nn1CC(=O)N1CC[C@@]2(C1)OC(=O)Nc1ccc(Cl)c(F)c12` [Example 65, (R)-1′-(2-(5-Amino-3-(4-chlorophenyl)-1H-pyrazol-1-yl)acetyl)-6-chloro-5-fluorospiro[benzo[d] [1,3]oxazine-4,3′-pyrrolidin]-2(1H)-one], the pIC50 at human factor XIa is 5.81; at Human plasma kallikrein it was 7.66.
For `Nc1cc(-c2ccc(OC(F)F)cc2)nn1CC(=O)N1CC[C@@]2(C1)OC(=O)Nc1ccc(Cl)c(F)c12` [Example 66, (R)-1′-(2-(5-Amino-3-(4-(difluoromethoxy)pheny1)-1H-pyrazol-1-yl)acetyl)-6-chloro-5-fluorospiro[benzo[d] [1,3]oxazine-4,3′-pyrrolidin]-2(1H)-one] the same measures were 6.19 and 7.99.
As for `N#Cc1cccc(-c2cc(N)n(CC(=O)N3CC[C@@]4(C3)OC(=O)Nc3ccc(Cl)c(F)c34)n2)c1` [Example 67, (R)-3-(5-Amino-1-(2-(6-chloro-5-fluoro-2-oxo-1,2-dihydrospiro[benzo[d] [1,3]oxazine-4,3'-pyrrolidin]-1'-y1)-2-oxoethyl)-1H-pyrazol-3-y1)benzonitrile], the values for the negative logarithm of the IC50 (pIC50) at human factor XIa and at Human plasma kallikrein were 6.36 and 7.92, respectively.
